These are literature values, as cited in patent US20240108699A1 (priority 2022, published 2024).

For this data set the following is noted: in vivo.

Consider Botulinum toxin complex A [BoNT-A], for which the “time for which effects are maintained” value was “three to six”.
